Source: ChEMBL document CHEMBL1138039, “Discovery and pharmacological evaluation of growth hormone secretagogue receptor antagonists” (J Med Chem, 2006)

target: T1, Growth hormone secretagogue receptor type 1 (Homo sapiens, UniProt Q92847); assay: Activity at GHS receptor by calcium flux assay in CHO-K cells; assay type: functional, cell-based
T1 sequence (Q92847 whole entry): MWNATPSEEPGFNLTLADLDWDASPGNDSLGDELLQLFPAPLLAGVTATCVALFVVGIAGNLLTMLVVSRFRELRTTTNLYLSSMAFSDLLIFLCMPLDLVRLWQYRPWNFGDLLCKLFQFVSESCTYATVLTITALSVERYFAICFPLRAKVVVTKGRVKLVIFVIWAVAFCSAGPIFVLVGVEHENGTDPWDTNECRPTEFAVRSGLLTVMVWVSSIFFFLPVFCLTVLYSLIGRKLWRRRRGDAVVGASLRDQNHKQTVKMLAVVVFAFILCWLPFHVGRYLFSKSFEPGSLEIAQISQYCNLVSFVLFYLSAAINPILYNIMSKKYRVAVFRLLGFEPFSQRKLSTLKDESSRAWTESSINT

SMILES	IC50
CC(C)CC(=O)Nc1ccc(-c2c(N)nc(N)nc2COCc2ccccc2)cc1	0.108 µM
Nc1nc(N)c(-c2ccc(NC(=O)Cc3ccsc3)cc2)c(COCc2ccccc2)n1	0.382 µM
Nc1nc(N)c(-c2ccc(NC(=O)NCc3ccccc3)cc2)c(COCc2ccccc2)n1	0.034 µM
Nc1nc(N)c(-c2ccc(NC(=O)Cc3ccsc3Br)cc2)c(COCc2ccccc2)n1	0.137 µM
CCC(=O)Nc1ccc(-c2c(N)nc(N)nc2COCc2ccccc2)cc1	> 10 µM
Nc1nc(N)c(-c2ccc(NC(=O)CCc3ccccc3)cc2)c(COCc2ccccc2)n1	0.343 µM
Nc1nc(N)c(-c2ccc(NC(=O)NCCc3ccccc3)cc2)c(COCc2ccccc2)n1	0.007 µM
Nc1nc(N)c(-c2ccc(NC(=O)c3ccsc3)cc2)c(COCc2ccccc2)n1	> 10 µM
CC(C)N(C)C(=O)Nc1ccc(-c2c(N)nc(N)nc2COCc2ccccc2)cc1	> 10 µM
Nc1nc(N)c(-c2ccc(NC(=O)Cc3ccccc3)cc2)c(COCc2ccccc2)n1	0.408 µM
Nc1nc(N)c(-c2ccc(NC(=O)Cc3cccnc3)cc2)c(COCc2ccccc2)n1	> 10 µM
Nc1nc(N)c(-c2ccc(NC(=O)C3CCCC3)cc2)c(COCc2ccccc2)n1	0.04 µM
CCc1nc(N)nc(N)c1-c1ccc2c(c1)nc(-c1ccccc1)n2Cc1ccc(S(C)(=O)=O)cc1	0.249 µM
Nc1nc(N)c(-c2ccc(NC(=O)c3ccncc3)cc2)c(COCc2ccccc2)n1	> 10 µM

target: T1, Growth hormone secretagogue receptor type 1; assay: Inhibition of [125I]ghrelin binding to GHS receptor in CHO-K cells; assay type: cell-based

SMILES	IC50
CC(C)CC(=O)Nc1ccc(-c2c(N)nc(N)nc2COCc2ccccc2)cc1	0.072 µM
Nc1nc(N)c(-c2ccc(NC(=O)Cc3ccsc3)cc2)c(COCc2ccccc2)n1	0.07 µM
Nc1nc(N)c(-c2ccc(NC(=O)Cc3ccsc3Br)cc2)c(COCc2ccccc2)n1	0.041 µM
CCC(=O)Nc1ccc(-c2c(N)nc(N)nc2COCc2ccccc2)cc1	0.221 µM
Nc1nc(N)c(-c2ccc(NC(=O)CCc3ccccc3)cc2)c(COCc2ccccc2)n1	0.047 µM
Nc1nc(N)c(-c2ccc(NC(=O)c3ccsc3)cc2)c(COCc2ccccc2)n1	0.126 µM
Nc1nc(N)c(-c2ccc(NC(=O)Cc3ccccc3)cc2)c(COCc2ccccc2)n1	0.037 µM
Nc1nc(N)c(-c2ccc(NC(=O)Cc3cccnc3)cc2)c(COCc2ccccc2)n1	> 1 µM
Nc1nc(N)c(-c2ccc(NC(=O)C3CCCC3)cc2)c(COCc2ccccc2)n1	0.018 µM
CCc1nc(N)nc(N)c1-c1ccc2c(c1)nc(-c1ccccc1)n2Cc1ccc(S(C)(=O)=O)cc1	0.016 µM
Nc1nc(N)c(-c2ccc(NC(=O)c3ccncc3)cc2)c(COCc2ccccc2)n1	3.08 µM

target: T2, Dihydrofolate reductase (Homo sapiens, UniProt P00374); assay: Inhibition of human recombinant DHFR assessed as rate of depletion of NADPH
T2 sequence (P00374 whole entry): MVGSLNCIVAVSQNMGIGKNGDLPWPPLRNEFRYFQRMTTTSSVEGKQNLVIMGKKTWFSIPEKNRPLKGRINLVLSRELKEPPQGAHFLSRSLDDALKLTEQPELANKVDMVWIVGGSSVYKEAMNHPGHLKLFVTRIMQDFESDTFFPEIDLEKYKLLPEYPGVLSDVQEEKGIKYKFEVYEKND

SMILES	IC50
Nc1nc(N)c(-c2ccc(NC(=O)Cc3ccsc3Br)cc2)c(COCc2ccccc2)n1	> 10 µM
Nc1nc(N)c(-c2ccc(NC(=O)NCCc3ccccc3)cc2)c(COCc2ccccc2)n1	> 10 µM
Nc1nc(N)c(-c2ccc(NC(=O)Cc3ccccc3)cc2)c(COCc2ccccc2)n1	> 10 µM
Nc1nc(N)c(-c2ccc(NC(=O)C3CCCC3)cc2)c(COCc2ccccc2)n1	> 10 µM
CCc1nc(N)nc(N)c1-c1ccc2c(c1)nc(-c1ccccc1)n2Cc1ccc(S(C)(=O)=O)cc1	2.3 µM
